Results: US9527830B2 (Merck Sharp & Dohme Corp., priority 2011, dated 2016)

Target: T1, hROMK1 (Kir1.1) (Homo sapiens, UniProt P48048)
T1 construct: expressed in transfected cells
T1 sequence (P48048 1-391): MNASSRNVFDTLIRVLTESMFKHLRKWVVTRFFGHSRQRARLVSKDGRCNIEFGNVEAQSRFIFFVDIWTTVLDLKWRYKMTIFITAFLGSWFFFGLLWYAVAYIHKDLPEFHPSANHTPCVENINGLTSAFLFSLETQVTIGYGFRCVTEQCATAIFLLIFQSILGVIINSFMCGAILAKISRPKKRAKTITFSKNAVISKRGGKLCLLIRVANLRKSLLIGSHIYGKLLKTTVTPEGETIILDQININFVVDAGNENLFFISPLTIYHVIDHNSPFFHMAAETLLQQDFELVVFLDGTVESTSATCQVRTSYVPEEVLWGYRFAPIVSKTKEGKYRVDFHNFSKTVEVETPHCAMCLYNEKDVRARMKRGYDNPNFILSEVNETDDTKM
Test: ^86Rb^+ Efflux Assay
Assay type: cell-based
Settings: CHO-DHFR- cells stably expressing hROMK1; potency ranges
Experimental: Several assays may be used to measure functional inhibition of the ROMK channel by compounds of the instant invention. One primary assay that can be used is a functional ^86Rb^+ efflux assay that measures the ability of ROMK to permeate ^86Rb^+, in the absence or presence of test compound. Under control conditions, cells loaded with ^86Rb^+ and incubated in Rb^+-free medium display a time-dependent efflux of the isotope, the rate of which depends on number of functional channels. When cells are incubated in the presence of a channel inhibitor, efflux of ^86Rb^+ is prevented in a concentration-dependent manner, and IC50 values of inhibition by compounds can be accurately determined. This assay has been established with cell lines expressing either human, rat or dog ROMK channels, and can operate in 96- or 384-well format. Importantly, the human, rat, and dog ^86Rb^+ efflux assays can be carried out in the presence of up to 100% serum allowing, therefore, an accurate estimation of the effect of protein binding on the inhibitory activity of compounds of interest. Another ROMK functional assay makes use of the ability of thallium to permeate through open ROMK channels and increase the fluorescence of a dye previously loaded into the cells. Under control conditions, cells loaded with dye and exposed to thallium-containing medium display a time-dependent increase in fluorescence, the rate of which depends on number of functional channels. When cells are incubated in the presence of a channel inhibitor, the increase in fluorescence is attenuated in a concentration-dependent manner, and IC50 values of inhibition by compounds can be accurately determined. This assay has been established with cell lines expressing either human, or rat ROMK channels, and operates in 384-well format. Another assay for evaluation of the compounds of the instant invention and for evaluation of mechanism of action of compounds of Formula I relies on the measurement of the electrical current that is generated as potassium permeates through the channel. For these electrophysiological experiments, three different platforms, IonWorks, QPatch, or manual patch clamp, are used, depending on the experimental protocol under consideration. IonWorks operates in a 384-well format and allows accurate determination of IC50 values for inhibitors.
CHO-DHFR-cells stably expressing hROMK1 (Kir1.1) were grown at 37° C. in a 10% CO2 humidified incubator in Iscove's Modified Dulbecco's Medium (Gibco 12440) supplemented with HT Supplement, Penicillin/Streptomycin/Glutamine, G418 (500 μg/ml) and 10% FBS. Cells were seeded in Sterile and Tissue Culture Treated Packard CulturPlate White Opaque Microplates at a concentration of 5.0E5-7.0E5 cells/ml—PerkinElmer 6005680 (96-well); Corning 3707 (384 well) in complete media containing 1.5 μCi/ml Rubidium-86. Cells were incubated in 37° C.-10% CO2 incubator overnight. On the day of the experiment, the media was removed and cells washed with low K assay buffer. ^86Rb^+ efflux was initiated after addition of assay buffer±test compound followed by 35 min incubation at room temperature. ROMK-sensitive component of efflux was defined in the presence of 10 mM BaCl2. Assay buffer was removed and transferred to a plate and cells were solubilized in the presence of SDS. Radioactivity associated with assay and cell plate was determined.
• 1. Removed cell media and washed cells with low K assay buffer (126.9 mM NaCl, 4.6 mM KCl, 2 mM CaCl2, 1 mM MgCl2, 10 mM Hepes/NaOH; pH 7.4) • 200 μl for 96-well plate; 70 μl for 384-well plate • 2. Added assay buffer (121.5 mM NaCl, 10 mM KCl, 2 mM CaCl2, 1 mM MgCl2, 10 mM Hepes/NaOH; pH 7.4)±test compound to cells • 100 μl for 96-well plate; 50 μl for 384-well plate • 3. Incubated at ambient temperature (22-24° C.) for 35 min • 4.

Structure (SMILES) | IC50 [nM]
CC1Cc2cc(/C=C/C3CCN(C(=O)Cc4ccc(-n5cnnn5)cc4)CC3)ccc2C(=O)O1 (stereo not drawn) [Example 79, 3-Methyl-6-[(E)-2-(1-{[4-(1H-tetrazol-1-yl)phenyl]acetyl}piperidin-4-yl)ethenyl]-3,4-dihydro-1H-isochromen-1-one] | ≤ 200
O=C(Cc1ccc(-n2cnnn2)cc1)N1CCC(/C=C/c2ccc3nonc3c2)CC1 [Example 5] | ≤ 200
O=[N+]([O-])c1ccc(/C=C/C2CCN(CCc3ccc([N+](=O)[O-])cc3)CC2)cc1 [Example 2, 4-[(E)-2-(4-Nitrophenyl)ethenyl]-1-[2-(4-nitrophenyl)ethyl]piperidine] | ≤ 200
O=C1OCc2cc(CCC3CCN(C(=O)Cc4ccc5c(c4)COC5=O)CC3)ccc21 [Example 50, 5-(2-{1-[(1-Oxo-1,3-dihydro-2-benzofuran-5-yl)acetyl]piperidin-4-yl}ethyl)-2-benzofuran-1(3H)-one] | ≤ 500
N#Cc1ccc(CC(=O)N2CCC(CCc3ccc4c(c3)COC4=O)CC2)cc1Br [Example 64, 2-Bromo-4-[2-oxo-2-[4-[2-(1-oxo-3H-isobenzofuran-5-yl)ethyl]-1-piperidyl]ethyl]benzonitrile] | ≤ 500
N#Cc1cc(/C=C/C2(O)CCN(C(=O)Cc3ccc(-n4cnnn4)cc3)CC2)ccc1F [Example 29, 2-Fluoro-5-[(E)-2-(4-hydroxy-1-{[4-(1H-tetrazol-1-yl)phenyl]acetyl}piperidin-4-yl)ethenyl]benzonitrile] | ≤ 500
N#Cc1c(F)ccc(CCC2(O)CCN(C(=O)Cc3ccc(-n4cnnn4)cc3)CC2)c1Cl [Example 40, 2-Chloro-6-fluoro-3-[2-(4-hydroxy-1-{[4-(1H-tetrazol-1-yl)phenyl]acetyl}piperidin-4-yl)ethyl]benzonitrile] | ≤ 500
O=C1OCc2c1ccc(CCC1CCN(C(=O)Cc3ccc(-n4cnnn4)cc3)CC1)c2F [Example 57, 4-Fluoro-5-[2-(1-{[4-(1H-tetrazol-1-yl)phenyl]acetyl}piperidin-4-yl)ethyl]-2-benzofuran-1(3H)-one] | ≤ 200
N#Cc1c(F)ccc(C#CC2(O)CCN(C(=O)Cc3ccc(-n4cnnn4)cc3)CC2)c1Cl [Example 39, 2-Chloro-6-fluoro-3-[(4-hydroxy-1-{[4-(1H-tetrazol-1-yl)phenyl]acetyl}piperidin-4-yl)ethynyl]benzonitrile] | ≤ 500
O=C(Cc1ccc(-n2cnnn2)cc1)N1CCC(Sc2ccc([N+](=O)[O-])cc2)CC1 [Example 12, 1-{4-[(4-Nitrophenyl)sulfanyl]piperidin-1-yl}-2-[4-(1H-tetrazol-1-yl)phenyl]ethanone] | ≤ 200
COc1cc(CC(=O)N2CCC(CCc3ccc4c(c3)COC4=O)CC2)ccc1C#N [Example 53, 2-Methoxy-4-(2-oxo-2-(4-[2-(1-oxo-1,3-dihydro-2-benzofuran-5-yl)ethyl]piperidin-1-yl}ethyl]benzonitrile] | ≤ 500
N#Cc1cc(CCC2(F)CCN(C(=O)Cc3ccc(-n4cnnn4)cc3)CC2)ccc1F [Example 14, 2-Fluoro-5-[2-(4-fluoro-1-{[4-(1H-tetrazol-1-yl)phenyl]acetyl}piperidin-4-yl)ethyl]benzonitrile] | ≤ 500
CC1Cc2cc(CCC3CCN(C(=O)Cc4ccc(-n5cnnn5)cc4)CC3)ccc2C(=O)O1 (stereo not drawn) [Example 80, 3-Methyl-6-[2-(1-{[4-(1H-tetrazol-1-yl)phenyl]acetyl}piperidin-4-yl)ethyl]-3,4-dihydro-1H-isochromen-1-one] | ≤ 200
O=C1OCCc2cc(CCC3CCN(C(=O)Cc4ccc(-n5cnnn5)cc4)CC3)ccc21 [Example 65, 6-[2-(1-{[4-(1H-tetrazol-1-yl)phenyl]acetyl}piperidin-4-yl)ethyl]-3,4-dihydro-1H-isochromen-1-one] | ≤ 200
O=C1OCc2c1ccc(/C=C/C1CCN(C(=O)Cc3ccc(-n4cnnn4)cc3)CC1)c2Br [Example 68, 4-Bromo-5-[(E)-2-(1-{[4-(1H-tetrazol-1-yl)phenyl]acetyl}piperidin-4-yl)ethenyl]-2-benzofuran-1(3H)-one] | ≤ 500
COc1cc(CC(=O)N2CCC(CCc3ccc4c(c3)COC4=O)CC2)c(F)cc1C#N [Example 56, 5-Fluoro-2-methoxy-4-(2-oxo-2-{4-[2-(1-oxo-1,3-dihydro-2-benzofuran-5-yl)ethyl]piperidin-1-yl}ethyl)benzonitrile] | ≤ 500
Cc1c(C#CC2(O)CCN(C(=O)Cc3ccc(-n4cnnn4)cc3)CC2)ccc(F)c1C#N [Example 36, 6-Fluoro-3-[(4-hydroxy-1-{[4-(1H-tetrazol-1-yl)phenyl]acetyl}piperidin-4-yl)ethynyl]-2-methylbenzonitrile] | ≤ 500
N#Cc1ccc(/C=C/C2CCN(CCc3ccc4c(c3)COC4=O)CC2)cc1 [Example 84, 4-[(E)-2-{1-[2-(1-Oxo-1,3-dihydro-2-benzofuran-5-yl)ethyl]piperidin-4-yl}ethenyl]benzonitrile] | ≤ 500
Cc1cc(/C=C/C2CCN(CCc3ccc4c(c3)COC4=O)CC2)ccc1C#N [Example 83] | ≤ 200
N#Cc1c(F)ccc(C#CC2(O)CCN(C(=O)Cc3ccc(-n4cnnn4)cc3)CC2)c1F [Example 33, 2,6-Difluoro-3-[(4-hydroxy-1-{[4-(1H-tetrazol-1-yl)phenyl]acetyl}piperidin-4-yl)ethynyl]benzonitrile] | ≤ 500
Cc1cc(-n2cnnn2)ccc1CC(=O)N1CCC(O)(CCc2ccc(F)c(C#N)c2)CC1 [Example 18, 2-Fluoro-5-[2-(4-hydroxy-1-{[2-methyl-4-(1H-tetrazol-1-yl)phenyl]acetyl}piperidin-4-yl)ethyl]benzonitrile] | ≤ 500
COc1cc(CCN2CCC(CCc3ccc4c(c3)COC4=O)CC2)ccc1C#N [Example 71, 2-Methoxy-4-(2-{4-[2-(1-oxo-1,3-dihydro-2-benzofuran-5-yl)ethyl]piperidin-1-yl}ethyl)benzonitrile] | ≤ 200
O=C1OCCc2cc(CCC3CCN(C(=O)C4CCc5cc(-n6cnnn6)ccc54)CC3)ccc21 (stereo not drawn) [Example 66] | ≤ 200
N#Cc1cc(CCC2(O)CCN(C(=O)Cc3ccc(-n4cnnn4)cc3)CC2)ccc1F [Example 13, 2-Fluoro-5-[2-(4-hydroxy-1-{[4-(1H-tetrazol-1-yl)phenyl]acetyl}piperidin-4-yl)ethyl]benzonitrile] | ≤ 500
COc1cc(C#N)c(F)cc1CC(=O)N1CCC(CCc2ccc3c(c2)COC3=O)CC1 [Example 70, 2-Fluoro-5-methoxy-4-(2-oxo-2-{4-[2-(1-oxo-1,3-dihydro-2-benzofuran-5-yl)ethyl]piperidin-1-yl}ethyl)benzonitrile] | ≤ 200
COC(=O)C1(CCc2ccc([N+](=O)[O-])cc2)CCN(CCc2ccc([N+](=O)[O-])cc2)CC1 [Example 1, Methyl 1,4-bis[2-(4-nitrophenyl)ethyl]piperidine-4-carboxylate] | ≤ 200
CN(C)C1(CCc2ccc(F)c(C#N)c2)CCN(C(=O)Cc2ccc(-n3cnnn3)cc2)CC1 [Example 82, 5-{2-[4-(Dimethylamino)-1-{[4-(1H-tetrazol-1-yl)phenyl]acetyl}piperidin-4-yl]ethyl}-2-fluorobenzonitrile] | ≤ 500
